Where “and” joins values, the source holds several entries; their conditions need not be identical. Equal entries are not always repeated.
Tests used:
E. coli AG100tet = assay: EtBr accumulation by real-time fluorometry; conditions: EtBr 2 µg/ml + inhibitor 80 µM
[1] = test system: human monocyte-derived macrophages; assay: Cytotoxicity, LDH release; type: cell-based; conditions: 5 µM; 3 days
Description: (§1) The blood was collected from healthy donors and the peripheral blood mononuclear cells were isolated by Ficoll-Paque Plus (GE Healthcare, Freiburg, Germany) density gradient centrifugation as previously described ([Machado et al., 2016]). […] Fresh medium was added at day 4 post isolation. The effect of the compounds on human monocyte-derived macrophages was evaluated using the AlamarBlue method (Molecular Probes, Life Technologies) ([O’Brien et al., 2000]), and by measuring the release of the lactate dehydrogenase (LDH) into the culture supernatants using the Pierce LDH Cytotoxicity Assay (ThermoFisher Scientific, Waltham, MA, USA) ([Chan, Moriwaki & Rosa, 2013]) according to the manufacturer’s instructions. Briefly, 5 × 10^4 cells were seeded in 96-well microplates treated with the compounds, and incubated at 37 °C with 5% CO2. After 72 h of treatment, the cell viability was assessed. For the AlamarBlue method, the dye was added to each well to a final concentration of 10% and incubated overnight at 37 °C and 5% CO2. The fluorescence was measured with a 540/35 excitation filter and a 590/20 emission filter in a Synergy HT multi-mode microplate reader. The release of LDH from damaged cells into culture supernatants, as an indicator of cytotoxicity, was measured in serum-free medium. Here the amount of enzyme activity correlates to the number of damaged cells. The specific lysis was calculated as follows: (treated cells—spontaneous LDH release)/ (maximum LDH release—spontaneous LDH release) ×100.

[2] = test system: human monocyte-derived macrophages; assay: Cytotoxicity, AlamarBlue method; type: cell-based; conditions: for AlamarBlue fluorescence 530/25,590/35 (raw well reading): 72 h
Description: as §1

E. coli AG100A = assay: EtBr efflux by real-time fluorometry; conditions: 20 µM, without glucose
Description: Control tubes with only cells and cells with and without 0.4% glucose were included. The fluorescence was measured in a Rotor-Gene 3000 and the data was acquired every 30 s for 30 min at 37 °C. The efflux activity was quantified by comparing the fluorescence data obtained under conditions that promote efflux (presence of glucose and absence of efflux inhibitor) with the data from the control in which the bacteria are under conditions of no efflux (presence of an inhibitor and no energy source).

[3] = three days of exposure, AlamarBlue

## CCCOc1ccc(-c2cc(OCCN3CCNCC3)c3ccccc3n2)cc1 [PQQ4R, 4-(2-(piperazin-1-yl)ethoxy)-2-(4-propoxyphenyl) quinolone]
E. coli AG100tet; cycle 1
  EtBr fluorescence: 9.875
E. coli AG100tet; cycle 2
  EtBr fluorescence: 10.6846
E. coli AG100tet; cycle 3
  EtBr fluorescence: 11.6019
E. coli AG100tet; cycle 4
  EtBr fluorescence: 12.4491
E. coli AG100tet; cycle 5
  EtBr fluorescence: 13.6501
E. coli AG100tet; cycle 6
  EtBr fluorescence: 14.6495
E. coli AG100tet; cycle 7
  EtBr fluorescence: 15.6732
E. coli AG100tet; cycle 8
  EtBr fluorescence: 16.6247
E. coli AG100tet; cycle 9
  EtBr fluorescence: 17.8761
E. coli AG100tet; cycle 10
  EtBr fluorescence: 18.9066
E. coli AG100tet; cycle 11
  EtBr fluorescence: 20.4282
E. coli AG100tet; cycle 12
  EtBr fluorescence: 21.7393
E. coli AG100tet; cycle 13
  EtBr fluorescence: 23.4754
E. coli AG100tet; cycle 14
  EtBr fluorescence: 25.1013
E. coli AG100tet; cycle 15
  EtBr fluorescence: 27.2614
E. coli AG100tet; cycle 16
  EtBr fluorescence: 29.2172
E. coli AG100tet; cycle 17
  EtBr fluorescence: 32.322
E. coli AG100tet; cycle 18
  EtBr fluorescence: 34.6681
E. coli AG100tet; cycle 19
  EtBr fluorescence: 38.0364
E. coli AG100tet; cycle 20
  EtBr fluorescence: 40.8691
E. coli AG100tet; cycle 21
  EtBr fluorescence: 44.3636
E. coli AG100tet; cycle 22
  EtBr fluorescence: 47.9426
E. coli AG100tet; cycle 23
  EtBr fluorescence: 51.4641
E. coli AG100tet; cycle 24
  EtBr fluorescence: 55.2307
E. coli AG100tet; cycle 25
  EtBr fluorescence: 58.9315
E. coli AG100tet; cycle 26
  EtBr fluorescence: 63.4348
E. coli AG100tet; cycle 27
  EtBr fluorescence: 67.7728
E. coli AG100tet; cycle 28
  EtBr fluorescence: 71.5821
E. coli AG100tet; cycle 29
  EtBr fluorescence: 76.2698
E. coli AG100tet; cycle 30
  EtBr fluorescence: 79.495
[1]
  increase in LDH release: 52.45%
[2]; 0.625 uM
  AlamarBlue fluorescence 530/25,590/35 (raw well reading): 4943 and 4771 and 4650
[2]; 1.25 uM
  AlamarBlue fluorescence 530/25,590/35 (raw well reading): 4755 and 4559 and 4604
[2]; 5 uM
  AlamarBlue fluorescence 530/25,590/35 (raw well reading): 468 and 451 and 495
[2]; 10 uM
  AlamarBlue fluorescence 530/25,590/35 (raw well reading): 253 and 248
[2]; 20 uM
  AlamarBlue fluorescence 530/25,590/35 (raw well reading): 256 and 246 and 248
[2]; 40 uM
  AlamarBlue fluorescence 530/25,590/35 (raw well reading): 254 and 251 and 248
[2]; 80 uM
  AlamarBlue fluorescence 530/25,590/35 (raw well reading): 254 and 250 and 251
[2]; 160 uM
  AlamarBlue fluorescence 530/25,590/35 (raw well reading): 259 and 263 and 255
[2]; [3]
  CC10: 9.21 µM
  CC90: 12.7 µM
E. coli AG100A; cycle 1
  EtBr fluorescence (Channel Cycling A.530/585hp): 5.807
E. coli AG100A; cycle 2
  EtBr fluorescence (Channel Cycling A.530/585hp): 5.662
E. coli AG100A; cycle 3
  EtBr fluorescence (Channel Cycling A.530/585hp): 5.478
E. coli AG100A; cycle 4
  EtBr fluorescence (Channel Cycling A.530/585hp): 5.356
E. coli AG100A; cycle 5
  EtBr fluorescence (Channel Cycling A.530/585hp): 5.183
E. coli AG100A; cycle 6
  EtBr fluorescence (Channel Cycling A.530/585hp): 5.1485
E. coli AG100A; cycle 7
  EtBr fluorescence (Channel Cycling A.530/585hp): 5.025
E. coli AG100A; cycle 8
  EtBr fluorescence (Channel Cycling A.530/585hp): 4.924
E. coli AG100A; cycle 9
  EtBr fluorescence (Channel Cycling A.530/585hp): 4.937
E. coli AG100A; cycle 10
  EtBr fluorescence (Channel Cycling A.530/585hp): 4.811
E. coli AG100A; cycle 11
  EtBr fluorescence (Channel Cycling A.530/585hp): 4.773
E. coli AG100A; cycle 12
  EtBr fluorescence (Channel Cycling A.530/585hp): 4.602
E. coli AG100A; cycle 13
  EtBr fluorescence (Channel Cycling A.530/585hp): 4.634
E. coli AG100A; cycle 14
  EtBr fluorescence (Channel Cycling A.530/585hp): 4.745
E. coli AG100A; cycle 15
  EtBr fluorescence (Channel Cycling A.530/585hp): 4.684
E. coli AG100A; cycle 16
  EtBr fluorescence (Channel Cycling A.530/585hp): 4.629
E. coli AG100A; cycle 17
  EtBr fluorescence (Channel Cycling A.530/585hp): 4.631
E. coli AG100A; cycle 18
  EtBr fluorescence (Channel Cycling A.530/585hp): 4.599
E. coli AG100A; cycle 19
  EtBr fluorescence (Channel Cycling A.530/585hp): 4.579
E. coli AG100A; cycle 20
  EtBr fluorescence (Channel Cycling A.530/585hp): 4.522
E. coli AG100A; cycle 21
  EtBr fluorescence (Channel Cycling A.530/585hp): 4.504
E. coli AG100A; cycle 22
  EtBr fluorescence (Channel Cycling A.530/585hp): 4.567
E. coli AG100A; cycle 23
  EtBr fluorescence (Channel Cycling A.530/585hp): 4.591
E. coli AG100A; cycle 24
  EtBr fluorescence (Channel Cycling A.530/585hp): 4.544
E. coli AG100A; cycle 25
  EtBr fluorescence (Channel Cycling A.530/585hp): 4.652
E. coli AG100A; cycle 26
  EtBr fluorescence (Channel Cycling A.530/585hp): 4.627
E. coli AG100A; cycle 27
  EtBr fluorescence (Channel Cycling A.530/585hp): 4.498
E. coli AG100A; cycle 28
  EtBr fluorescence (Channel Cycling A.530/585hp): 4.577
E. coli AG100A; cycle 29
  EtBr fluorescence (Channel Cycling A.530/585hp): 4.648
E. coli AG100A; cycle 30
  EtBr fluorescence (Channel Cycling A.530/585hp): 4.639
E. coli AG100A; cycle 31
  EtBr fluorescence (Channel Cycling A.530/585hp): 4.704
E. coli AG100A; cycle 32
  EtBr fluorescence (Channel Cycling A.530/585hp): 4.705
E. coli AG100A; cycle 33
  EtBr fluorescence (Channel Cycling A.530/585hp): 4.739
E. coli AG100A; cycle 34
  EtBr fluorescence (Channel Cycling A.530/585hp): 4.713
E. coli AG100A; cycle 35
  EtBr fluorescence (Channel Cycling A.530/585hp): 4.766
E. coli AG100A; cycle 36
  EtBr fluorescence (Channel Cycling A.530/585hp): 4.793
E. coli AG100A; cycle 37
  EtBr fluorescence (Channel Cycling A.530/585hp): 4.818
E. coli AG100A; cycle 38
  EtBr fluorescence (Channel Cycling A.530/585hp): 4.849
E. coli AG100A; cycle 39
  EtBr fluorescence (Channel Cycling A.530/585hp): 4.826
E. coli AG100A; cycle 40
  EtBr fluorescence (Channel Cycling A.530/585hp): 4.8647
E. coli AG100A; cycle 41
  EtBr fluorescence (Channel Cycling A.530/585hp): 4.7891
E. coli AG100A; cycle 42
  EtBr fluorescence (Channel Cycling A.530/585hp): 4.94
E. coli AG100A; cycle 43
  EtBr fluorescence (Channel Cycling A.530/585hp): 5.003
E. coli AG100A; cycle 44
  EtBr fluorescence (Channel Cycling A.530/585hp): 5
E. coli AG100A; cycle 45
  EtBr fluorescence (Channel Cycling A.530/585hp): 5.002
E. coli AG100A; cycle 46
  EtBr fluorescence (Channel Cycling A.530/585hp): 5.099
E. coli AG100A; cycle 47
  EtBr fluorescence (Channel Cycling A.530/585hp): 5.05
E. coli AG100A; cycle 48
  EtBr fluorescence (Channel Cycling A.530/585hp): 5.085
E. coli AG100A; cycle 49
  EtBr fluorescence (Channel Cycling A.530/585hp): 5.044
E. coli AG100A; cycle 50
  EtBr fluorescence (Channel Cycling A.530/585hp): 5.1253
E. coli AG100A; cycle 51
  EtBr fluorescence (Channel Cycling A.530/585hp): 5.103
E. coli AG100A; cycle 52
  EtBr fluorescence (Channel Cycling A.530/585hp): 5.071
E. coli AG100A; cycle 53
  EtBr fluorescence (Channel Cycling A.530/585hp): 5.2927
E. coli AG100A; cycle 54
  EtBr fluorescence (Channel Cycling A.530/585hp): 5.227
E. coli AG100A; cycle 55
  EtBr fluorescence (Channel Cycling A.530/585hp): 5.134
E. coli AG100A; cycle 56
  EtBr fluorescence (Channel Cycling A.530/585hp): 5.328
E. coli AG100A; cycle 57
  EtBr fluorescence (Channel Cycling A.530/585hp): 5.315
E. coli AG100A; cycle 58
  EtBr fluorescence (Channel Cycling A.530/585hp): 5.365
E. coli AG100A; cycle 59
  EtBr fluorescence (Channel Cycling A.530/585hp): 5.339
E. coli AG100A; cycle 60
  EtBr fluorescence (Channel Cycling A.530/585hp): 5.32
E. coli AG100A; cycle 61
  EtBr fluorescence (Channel Cycling A.530/585hp): 5.417

From PMC5433425 (PeerJ, 2017)
